Results from patent publication US20090181972A1, “Novel Inhibitors of Cysteine Proteases, the Pharmaceutical Compositions Thereof and their Therapeutic Applications” (priority 2005, published 2009).

How the values were obtained:
SENP1 = target: T1, SENP1 (Homo sapiens, UniProt Q9P0U3); assay: SENP1 activity assay; assay type: biochemical; settings: MBP-SENP1 1.8 nM, 200 nM SUMO-AMC; pre-incubated 30 minutes at 25° C., 60 minutes at 37° C.; sigmoidal fit
T1 construct: made in house; host or cells: E. coli BL21
T1 sequence (Q9P0U3 1-644): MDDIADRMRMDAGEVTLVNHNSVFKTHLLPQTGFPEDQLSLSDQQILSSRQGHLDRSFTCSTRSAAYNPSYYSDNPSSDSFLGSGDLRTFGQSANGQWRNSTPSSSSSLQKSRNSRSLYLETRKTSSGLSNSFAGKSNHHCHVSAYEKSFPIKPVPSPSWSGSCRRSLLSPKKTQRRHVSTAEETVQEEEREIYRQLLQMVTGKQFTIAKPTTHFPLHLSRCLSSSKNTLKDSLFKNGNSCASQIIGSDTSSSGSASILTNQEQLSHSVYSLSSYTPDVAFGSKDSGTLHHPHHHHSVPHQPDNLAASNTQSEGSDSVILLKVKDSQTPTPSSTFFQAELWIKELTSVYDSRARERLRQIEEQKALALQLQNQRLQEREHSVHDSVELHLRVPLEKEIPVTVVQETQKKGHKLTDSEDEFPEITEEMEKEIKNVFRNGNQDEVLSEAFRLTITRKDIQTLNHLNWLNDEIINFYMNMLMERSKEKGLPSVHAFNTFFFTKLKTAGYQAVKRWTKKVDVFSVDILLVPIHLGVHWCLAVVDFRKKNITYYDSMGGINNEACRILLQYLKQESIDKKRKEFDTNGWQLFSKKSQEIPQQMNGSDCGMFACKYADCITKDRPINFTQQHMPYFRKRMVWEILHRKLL
Experimental: The cDNA encoding SENP1 was obtained by PCR amplification from placenta mRNA. SENP1 cDNA was subcloned by PCR into a bacterial expression vector (pMAL-C2X; New England BioLabs, Inc). The sequence was ascertained by sequencing of the entire open reading frame. pMAL-C2-SENP1 was transformed into BL21 cells and grown in LB-ampicillin medium supplemented with glucose (2 g.l^−1). Fusion protein expression was induced by IPTG (0.5 mM). Bacterial cell lysates were harvested and lyzed in lysis buffer (Tris HCl 20 mM pH 7.4; 1 mM EDTA; 200 mM NaCl; 0.5% Triton X-100; 10 % glycerol; Protease Inhibitor Cocktail) followed by sonication. Proteins were affinity purified on amylose affinity resin (New England BioLabs, Inc). Bound materials were extensively washed in wash buffer (20 mM Tris HCl pH 7.4; 200 mM NaCl; 1 mM EDTA; 0.5% Triton X-100; 10% glycerol) and eluted from the resin in 10 mM maltose-containing wash buffer. Proteins were dialyzed in dialysis buffer (Tris HCl pH 7.6 20 mM; NaCl 200 mM; DTT 1 mM; EDTA 1 mM; 10% Glycerol). Proteins purifications were analyzed on 4-12% NuPAGE (Invitrogen).
(§1) MBP-SENP1 was diluted in SENP1 buffer (50 mM Tris HCl; 0.5 mM EDTA; 5 mM DTT; 0.01 % Triton X-100; Bovine Serum Albumin 0.05 mg.ml^−1 pH 7.6). Compounds stocks (100 mM) were stored at −20° C. in DMSO. Compounds were tested at the following final concentrations: 100 μM; 33.3 μM; 11.1 μM; 3.7 μM; 1.23 μM; 412 nM; 137 nM; 45.7 nM; 15.2 nM; 5 nM.
(§2) Reactions were performed as duplicates in Black LJL 96 well plates (HE microplates; Molecular Devices; 20 μl final reaction volume). The substrate concentration for SENP1 was 200 nM SUMO-AMC (Chem. Biol., 2003, 10, p. 837-846) (Boston Biochem). The concentration of the enzyme (SENP1) in specificity assays was 1.8 nM. The concentrations were determined in order to perform specificity assays under initial velocities at fixed substrate concentration. Compounds were pre-incubated with enzymes for 30 minutes at 25° C. Reactions were initiated by addition of substrate to the plates containing the enzymes (+/− compounds) diluted in assay buffer. Reactions were incubated for 60 minutes at 37° C. Reactions were stopped by adding acetic acid (100 mM final). Readings were performed on a Pherastar Fluorescent Reader (BMG). λ Emission 380 nm; λ Excitation=460 nm. Data (mean values +/− standard deviation) were analyzed as % of control (no compound) and plotted as percentage versus the Log of the compound concentration using GraphPad (Prism). Data were fitted to a sigmoidal model (variable slope).

Uch-L3 = target: T2, Uch-L3 (Homo sapiens, UniProt P15374); assay: UCH-L3 activity assay; assay type: biochemical; settings: 400 nM Ub-AMC, 13 pM enzyme; pre-incubated 30 minutes at 25° C., 60 minutes at 37° C.; sigmoidal fit
T2 sequence (P15374 1-230): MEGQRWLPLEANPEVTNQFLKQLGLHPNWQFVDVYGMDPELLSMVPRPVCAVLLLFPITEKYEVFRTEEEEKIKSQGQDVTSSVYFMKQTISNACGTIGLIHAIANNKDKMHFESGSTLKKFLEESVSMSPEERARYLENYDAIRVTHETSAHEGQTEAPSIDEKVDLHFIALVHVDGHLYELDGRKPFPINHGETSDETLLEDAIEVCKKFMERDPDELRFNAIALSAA
Experimental: as §1, with “Uch-L3” for “MBP-SENP1”, “USP” for “SENP1”, “0.01%” for “0.01 %”
as §2, with “Uch-L3” for “SENP1”, “400” for “200”, “Ub-AMC” for “SUMO-AMC (Chem. Biol., 2003, 10, p. 837-846)”, “(Uch-L3)” for “(SENP1)”, “13 pM.” for “1.8 nM.”, “δ” for “λ”

| Compound | IC50 (SENP1) | IC50 (Uch-L3) |
| --- | --- | --- |
| 6-(7)-Chloro-1-methyl-2,3,4,10,10a-pentaaza-cyclopenta[b]fluoren-9-one [Example 3/A] | > 100000 nM | 323 nM |
| CC(C)c1nnc2nc3c(nn12)C(=O)c1ccccc1-3 [Example 1l/A, 1-lsopropyl-2,3,4,10,10a-pentaaza-cyclopenta[b]fluoren-9-one] |  | 800 nM |
| CCc1nnc2nc3c(nn12)C(=O)c1cc(OC)c(OC)cc1-3 [Example 5b/A, 1-Ethyl-6,7-dimethoxy-2,3,4,10,10a-pentaaza-cyclopenta[b]fluoren-9-one] | 35700 nM | 1800 nM |
| CCc1nnc2nc3c(nn12)-c1cc(OC)c(OC)cc1C3=O [Example 5b/B, 3-Ethyl-6,7-dimethoxy-1,2,3a,4,10-pentaaza-cyclopenta[b]fluoren-9-one] | 1280 nM | 131 nM |
